Data set [1] has as its system bean beetle (Acanthoscalides obtectus). The data set can be described thus: Pesticidal effect on bean beetle, treated filter paper discs (Example 15, Table I). It counts as in vivo. The note with it: 24 hours, killed and paralysed. Here is the method: From the compounds of the present invention a series of dilution is prepared in acetone; concentration 1, 0.2, 0.04, 0.008 and 0.0016%, respectively. The solutions thus obtained (0.5 ml) are poured dropwise onto Whatman No. 1. filter paper discs (diameter 90 mm) placed in Petri-dishes. After the solvent has evaporated 1-2 weeks' old bean beetle (Acanthoscalides obtectus) images are placed into the Petri-dishes. 3 replicates (10-15 insects each) are used for each concentration. The pesticidal effect of the test compounds is evaluated after 24 hours, on the basis of the percental ratio of the killed and paralysed individuals.

The subject of data set [2] is house fly (Musca domestica). Put plainly: Insecticidal activity on house fly, treated filter paper discs (Example 16, Table II). It counts as in vivo. Also noted: mortality: concentration or dose not given beside the values. Here is the method:
From the test compounds a series of dilution disclosed in Example 15 is prepared whereupon 3-5 days' old house fly (Musca domestica) images being under slight carbon dioxide narcosis are placed onto the infected treated filter paper discs. Three replicates ([…] each) are used for each concentration. The insecticidal activity of the test compounds and that of the referent compounds is evaluated after 24 hours on the basis of the percental ratio of the killed and paralyzed flies. In the solvent control grop there was no mortality.

Data set [3] is described as follows: in vivo. The settings on record: rat, po. Also noted: species or system rats. An excerpt: The acute toxicity data (p.o.) of the test compounds are disclosed in Table IV.
For data set [4], the system named is house fly (Musca domestica). Put plainly: whole plant or invertebrate. It counts as in vivo. Here is the method: From the compound according to Example 1 a series of dilution is prepared in acetone; concentration: 0.6, 0.2, 0.067 and 0.022% by weight, respectively. From these solutions 0.5 ml each is poured dropwise onto Whatman No. 1 filter paper discs (diameter 90 mm) placed in Petri-dishes. The discs were previously treated with 0.5 ml of a 0.04% piperonyl butoxide solution. After the evaporation of the acetone 3-5 days' old house fly (Musca domestica) imagos being under slight carbon dioxide narcosis are placed onto the filter paper discs. The test is evaluated as described in Example 16.

Data set [5] relates to small American flour-beetle (Tribolium confusum) larvae. Put plainly: Insecticidal effect on flour-beetle larvae, application onto dorsal cuticulum (Example 17, Table III). The note with it: topical, 96 h. Here is the method:
From the 2,3-dihydro-2,2-dimethyl-7-benzofuranyl-N-methyl-N-(N'-morpholinomethyl)-carbamate, dioxacarb and carbofuran series of dilutions are prepared in acetone: the active ingredient content of the solutions amounts to 40.5, 13.5, 4.5, 1.5, 0.5, 0.16 and 0.05 […] per […], respectively. The solutions (0.5 μl) are applied with the aid of a Hamilton syringe onto the dorsal cuticulum of small American flour-beetle (Tribolium confusum) of L6 larva stage. The age of the larvae is determined on the basis of the average larva weight (=1.81±0.37 mg/larva) See Sokoloff 1972.
Two replicates are used for each concentration (10 individuals per replicate). The insecticidal effect of the test compounds is evaluated after 96 hours on the basis of the percental ratio of killed larvae.

In data set [6] the test system is rats. The settings on record: p.o.; cited from earlier work.
[7] abbreviates: concentration of active ingredient 0.0016%.
[8] abbreviates: concentration of active ingredient 0.008%.
Setting [9] is: concentration of active ingredient 0.04%.
The mark [10] stands for this setting: concentration of active ingredient 0.2%.
Where [11] appears, read: concentration of active ingredient 1%.
The mark [12] stands for this setting: female rats, p.o., read-out: acute toxicity (p.o.) on female rats.
Setting [13] is: male rats, p.o., read-out: acute toxicity (p.o.) on male rats.

Like-named read-outs stand apart in the source and are kept apart here.

In the case of `CCOC(=O)CCN(CN(C)C(=O)Oc1cccc2c1OC(C)(C)C2)C(C)C` [Example 3, 2,3-dihydro-2,2-dimethyl-7-benzofuranyl-N-methyl-N-[(N'-isopropyl)-N'-(β-carbethoxy-ethyl)-amino-methyl]-carbamate], the mortality % in data set [1] (setting [7]) worked out at 0%; in data set [1] (setting [8]), 27%; in data set [1] (setting [9]) it was 53%; in data set [1] (setting [10]) it was 80%; in data set [1] (setting [11]), 97%. Besides, the mortality at 0.0016 % in data set [2] (24 h) was found to be 0%. Further, the mortality at 0.04 % in data set [2] (24 h) came to 40%. In data set [2] (24 h), the mortality at 0.08 % stood at 33%. The mortality at 0.2 % in data set [2] (24 h) stood at 70%. In addition, the mortality at 1 % in data set [2] (24 h) was 97%. In addition, the LD50 in data set [3] (setting [12]) came out at 31.8 mg/kg; in data set [3] (setting [13]) it was 23.3 mg/kg.

In data set [4] (24 h), `CN(CN1CCOCC1)C(=O)Oc1cccc2c1OC(C)(C)C2` [Example 1, 2,3-dihydro-2,2-dimethyl-7-benzofuranyl-N-methyl-N-(N'-morpholinyl-methyl)-carbamate] displayed a mortality at 0.022 % of 32%, a mortality at 0.067 % of 78%, a mortality at 0.2 % of 100% and a mortality at 0.6 % of 100%. In data set [1] (setting [7]), this compound yielded a mortality % of 0%. This compound had a mortality % in data set [1] (setting [8]) of 50%. This compound returned a mortality % in data set [1] (setting [9]) of 87%. Also, in data set [1] (setting [10]), the mortality % is reported as 97%. The compound further had a mortality % in data set [1] (setting [11]) of 100%. Further, in data set [2] (24 h), the mortality at 0.0016 % came to 30%, the mortality at 0.04 % worked out at 43%, the mortality at 0.08 % amounted to 40% and the mortality at 0.2 % is 80%. In data set [2] (24 h), this compound yielded a mortality at 1 % of 100%. In data set [5], this compound yielded a mortality at 0.03 µg/larva of 75%, a mortality at 0.16 µg/larva of 80%, a mortality at 0.5 µg/larva of 90% and a mortality at 1.5 µg/larva of 90%. In data set [5], the mortality at 4.5 µg/larva is 95%, the mortality at 13 µg/larva amounted to 100% and the mortality at 40.5 µg/larva came out at 100%. In data set [3] (setting [12]), the LD50 came out at 50 mg/kg. In addition, the LD50 in data set [3] (setting [13]) worked out at 50 mg/kg.

Compound `CNC(=O)Oc1ccccc1C1OCCO1` [Dioxacarb, reference compound] displayed a mortality % in data set [1] (setting [7]) of 0%. The compound further registered a mortality % in data set [1] (setting [8]) of 30%. Further, the mortality % in data set [1] (setting [9]) amounted to 43%. In data set [1] (setting [10]), this compound registered a mortality % of 93%. In data set [1] (setting [11]), this compound returned a mortality % of 100%. In data set [2] (24 h), the mortality at 0.0016 % is 0%, the mortality at 0.04 % was determined as 17%, the mortality at 0.08 % was 10% and the mortality at 0.2 % came to 90%. The compound also registered a mortality at 1 % in data set [2] (24 h) of 100%. In data set [5], this compound came in with a mortality at 0.03 µg/larva of 25%, a mortality at 0.16 µg/larva of 40%, a mortality at 0.5 µg/larva of 45% and a mortality at 1.5 µg/larva of 50%. In data set [5], the mortality at 4.5 µg/larva is 50%, the mortality at 13 µg/larva worked out at 55% and the mortality at 40.5 µg/larva is 80%.

Take `CNC(=O)Oc1cccc2c1OC(C)(C)C2` [Carbofuran, 2,3-dihydro-2,2-dimethyl-benzofurane-7-yl-methyl-carbamate, reference compound]: in data set [4] (concentration of active ingredient 0.022%, evaluated as Example 16 (24 hours), read-out: mortality %), the mortality at 0.022 % was found to be 71%. Also, the mortality at 0.067 % in data set [4] (concentration of active ingredient 0.067%, evaluated as Example 16 (24 hours), read-out: mortality %) came out at 100%. The mortality at 0.2 % in data set [4] (concentration of active ingredient 0.2%, evaluated as Example 16 (24 hours), read-out: mortality %) came out at 100%. Further, the mortality at 0.6 % in data set [4] (concentration of active ingredient 0.6%, evaluated as Example 16 (24 hours), read-out: mortality %) turned out to be 100%. The compound also yielded a mortality % in data set [1] (setting [7]) of 0%. The same compound returned a mortality % in data set [1] (setting [8]) of 93%. Further, the mortality % in data set [1] (setting [9]) is 100%. This compound also came in with a mortality % in data set [1] (setting [10]) of 100%. This compound also had a mortality % in data set [1] (setting [11]) of 100%. In addition, the “acute toxicity LD50” value in data set [6] is 8 to 10 mg/kg. In data set [2] (24 hours, killed and paralyzed), the mortality amounted to 53%. Besides, the mortality at 0.0016 % in data set [2] (concentration of active ingredient 0.0016%, 24 hours, killed and paralyzed, read-out: mortality %) came to 43%. Besides, the mortality at 0.04 % in data set [2] (concentration of active ingredient 0.04%, 24 hours, killed and paralyzed, read-out: mortality %) is 67%. Further, the mortality at 0.2 % in data set [2] (concentration of active ingredient 0.2%, 24 hours, killed and paralyzed, read-out: mortality %) is 100%. In addition, the mortality at 1 % in data set [2] (concentration of active ingredient 1%, 24 hours, killed and paralyzed, read-out: mortality %) amounted to 100%. In data set [5], this compound displayed a mortality at 0.03 µg/larva of 30%, a mortality at 0.16 µg/larva of 70%, a mortality at 0.5 µg/larva of 100% and a mortality at 1.5 µg/larva of 100%. In addition, in data set [5], the mortality at 4.5 µg/larva worked out at 100%, the mortality at 13 µg/larva is 100% and the mortality at 40.5 µg/larva is 100%. The compound also registered an LD50 in data set [3] (acute toxicity (p.o.) on male rats) of 8 to 14 mg/kg.

On to `COc1ccc(CCNCN(C)C(=O)Oc2cccc3c2OC(C)(C)C3)cc1OC` [Example 4, 2,3-dihydro-2,2-dimethyl-7-benzofuranyl-N-methyl-N-[3,4-(dimethoxy)-phenylethyl]-amino-methyl-carbamate], for which the mortality % stood at 0% in data set [1] (setting [7]); 37% in data set [1] (setting [8]); 70% in data set [1] (setting [9]); 87% in data set [1] (setting [10]); 100% in data set [1] (setting [11]). In data set [2] (24 h), the mortality at 0.0016 % was 0%. In addition, the mortality at 0.04 % in data set [2] (24 h) was 37%. Besides, the mortality at 0.08 % in data set [2] (24 h) stood at 20%. This compound gave a mortality at 0.2 % in data set [2] (24 h) of 83%. Besides, in data set [2] (24 h), the mortality at 1 % is 100%.

For `CC(C)NCN(C)C(=O)Oc1cccc2c1OC(C)(C)C2` [Example 2, 2,3-dihydro-2,2-dimethyl-7-benzofuranyl-N-methyl-N-/isopropyl-amino-methyl/-carbamate], the mortality % was determined as 0% in data set [1] (setting [7]); 40% in data set [1] (setting [8]); 60% in data set [1] (setting [9]); 100% in data set [1] (setting [10]); 100% in data set [1] (setting [11]). Besides, in data set [2] (24 h), the mortality at 0.0016 % was found to be 0%. Moreover, the mortality at 0.04 % in data set [2] (24 h) stood at 30%. This compound also showed a mortality at 0.08 % in data set [2] (24 h) of 10%. In data set [2] (24 h), the mortality at 0.2 % was determined as 67%. For the same compound, in data set [2] (24 h), the mortality at 1 % turned out to be 90%.

As usually defined, the mortality is the percentage killed.
